Experimental findings from patent publication US10717730B1, “Dihydroisoquinoline compound” (SUZHOU ARK BIOPHARMACEUTICAL CO., LTD., priority 2017, dated 2020) are described below.

Series [1] is described as follows: Cytotoxicity CC50 (CellTiter-Glo). The format is cell-based. The note with it: human; HepG2.2.15 cells, four days. As to the method: HepG2.2.15 cells were seeded into 96-well white plate at 5000 cells/well and treated with serially diluted compounds. The plates were incubated in incubator with 5% CO2 at 37° C. for four days. The plate was taken out of incubator and adapted to room temperature for 30 minutes, followed by adding 25 μl CellTiter-Glo (Promega) reagent into each well and votexed at room temperature before being measured for luminance using spectrometer (Tecan Infinite® F200). The CC50 of each compound was defined as the compound concentration at which the treated well's cell viability is 50% compared to that of the DMSO treated well.
In general terms: In ATP-based viability assays light output follows the ATP content of the culture.

Another series relates to HBsAg. Nature of the series: HBsAg assay (secreted HBsAg by CLIA in HepG2.2.15 cells). Format: cell-based, hepatitis B virus (HBV). The note with it: Hepatitis B virus, HepG2.2.15, 96 h. An outline of the steps:
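HepG2.2.15 cells were exposed to a five-fold compound dilution series (0.5% DMSO final) for four days. Secreted HBsAg in supernatant quantified by chemiluminescence immunoassay; IC50 extrapolated from dose-response curves.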

Each structure is given as a SMILES string.

As a reminder, the CC50 is the concentration giving 50% cytotoxicity. A lower CC50 goes with harm at low concentration. What is called IC50 is the midpoint of a concentration-inhibition curve. A higher IC50 goes with a need for much substance. In series [1], `CCOC(=O)CCn1cc(-c2cc3c(cc2OC)-c2cc(=O)c(C(=O)OCC)cn2C(C(C)(C)C)C3)ccc1=O` (stereo not drawn) [Example 72, Ethyl 6-(tert-butyl)-9-(1-(3-ethoxy-3-oxopropyl)-6-oxo-1,6-dihydropyridin-3-yl)-10-methoxy-2-oxo-6,7-dihydro-2H-pyrido[2,1-a]isoquinoline-3-carboxylate] yielded a 50% cytotoxic concentration (CC50) at 4 days of 50000 to 100000 nM. This molecule also returned an IC50 with HBsAg of 565 nM.
With `COc1cc2c(cc1-c1nncn1CCCO)CC(C(C)(C)C)n1cc(C(=O)O)c(=O)cc1-2` (stereo not drawn) [Example 31, 6-(tert-butyl)-9-(4-(3-hydroxypropyl)-4H-1,2,4-triazol-3-yl)-10-methoxy-2-oxo-6,7-dihydro-2H-pyrido[2,1-a]isoquinoline-3-carboxylic acid], in series [1], the CC50 at 4 days lay within 50000 to 100000 nM. Besides, the IC50 in the series on HBsAg turned out to be 826 nM.
In series [1], `CCOC(=O)CCCn1cc(-c2cc3c(cc2OC)-c2cc(=O)c(C(=O)OCC)cn2C(C(C)(C)C)C3)ccc1=O` (stereo not drawn) [Example 75, Ethyl 6-(tert-butyl)-9-(1-(4-ethoxy-4-oxobutyl)-6-oxo-1,6-dihydropyridin-3-yl)-10-methoxy-2-oxo-6,7-dihydro-2H-pyrido[2,1-a]isoquinoline-3-carboxylate] showed a CC50 at 4 days of 50000 to 100000 nM. Inhibition in the series on HBsAg was half-maximal at 466 nM (IC50).
As for `COc1cc2c(cc1-c1ncn(CCCO)n1)CC(C(C)(C)C)n1cc(C(=O)O)c(=O)cc1-2` (stereo not drawn) [Example 32, 6-(tert-butyl)-9-(1-(3-hydroxypropyl)-1H-1,2,4-triazol-3-yl)-10-methoxy-2-oxo-6,7-dihydro-2H-pyrido[2,1-a]isoquinoline-3-carboxylic acid], the CC50 at 4 days in series [1] was in the range of 50000 to 100000 nM. In the series with HBsAg, this molecule returned a half-inhibitory concentration (IC50) of 97 nM.
For the molecule `COc1cc2c(cc1-c1cnc(C)s1)CC(C(C)(C)C)n1cc(C(=O)O)c(=O)cc1-2` (stereo not drawn) [Example 28, 6-(tert-butyl)-10-methoxy-9-(2-methylthiazol-5-yl)-2-oxo-6,7-dihydro-2H-pyrido[2,1-a]isoquinoline-3-carboxylic acid], the 50% cytotoxic concentration (CC50) at 4 days in series [1] is over 100000 nM. The molecule also registered a half-inhibitory concentration (IC50) with HBsAg of 0.2 nM.
As for `CCOC(=O)c1cn2c(cc1=O)-c1cc(OC)c(-c3ccc(=O)n(C(C)C(=O)OCC)c3)cc1CC2C(C)(C)C` (stereo not drawn) [Example 74, Ethyl 6-(tert-butyl)-9-(1-(1-ethoxy-1-oxoprop-2-yl)-6-oxo-1,6-dihydro-pyridin-3-yl)-10-methoxy-2-oxo-6,7-dihydro-2H-pyrido[2,1-a]isoquinoline-3-carboxylate], the CC50 at 4 days in series [1] was 50000 to 100000 nM. The same molecule returned an IC50 in the series with HBsAg of 129 nM.
